# Test results taken from the supplement of paper PMC10307832.
# How the values were obtained:
# Assay in all cases: relative viability (nuclei count vs DMSO), 5 days (fraction); higher = more cells survive
# BEN = tested on: BEN
# In short: (§1)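 A single step with final 0.05% Triton X-100, 1% formaldehyde and 1 ug/ml Hoechst fixed the cells and stained nuclei 5 days after treatment. Lung cancer cell lines in 1536-well plates had been treated by pin tool the day after seeding with one drug alone or a fixed anchor-drug dose plus five library-drug doses (not always all listed) in √10 steps, and nuclei were counted on 4× images. Relative viability is the ratio of nuclei in treated wells to nuclei in vehicle wells, taken as the median of duplicate plates.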
# HCC-366 = tested on: HCC-366
# In short: as §1
# LC-2-ad = tested on: LC-2-ad
# In short: as §1
# HCC-827 = tested on: HCC-827
# In short: as §1
# NCI-H1993 = tested on: NCI-H1993
# In short: as §1
# NCI-H1975 = tested on: NCI-H1975
# In short: as §1
# LU99A = tested on: LU99A
# In short: as §1
# NCI-H596 = tested on: NCI-H596
# In short: as §1
# COR-L23 = tested on: COR-L23
# In short: as §1
# NCI-H1755 = tested on: NCI-H1755
# In short: as §1
# COR-L 105 = tested on: COR-L 105
# In short: as §1
# LXF-289 = tested on: LXF-289
# In short: as §1
smiles,measurement,setting,value
O=c1[nH]c2ccccc2n1C1CCN(CCCC(c2ccc(F)cc2)c2ccc(F)cc2)CC1 [Pimozide] + Cc1nc(Nc2ncc(C(=O)Nc3c(C)cccc3Cl)s2)cc(N2CCN(CCO)CC2)n1 [Dasatinib] (partner 0.075 µM),relative viability,BEN; first compound 2.53 µM,0.329
same,relative viability,BEN; first compound 8 µM,0.412
same,relative viability,HCC-366; first compound 0.08 µM,0.613
same,relative viability,HCC-366; first compound 0.253 µM,0.644
same,relative viability,HCC-366; first compound 0.8 µM,0.625
same,relative viability,HCC-366; first compound 2.53 µM,0.615
same,relative viability,HCC-366; first compound 8 µM,0.714
same,relative viability,LC-2-ad; first compound 0.08 µM,0.571
same,relative viability,LC-2-ad; first compound 0.253 µM,0.518
same,relative viability,LC-2-ad; first compound 0.8 µM,0.447
same,relative viability,LC-2-ad; first compound 2.53 µM,0.548
same,relative viability,LC-2-ad; first compound 8 µM,0.493
same,relative viability,HCC-827; first compound 0.253 µM,0.265
same,relative viability,HCC-827; first compound 0.8 µM,0.327
same,relative viability,HCC-827; first compound 2.53 µM,0.32
same,relative viability,HCC-827; first compound 8 µM,0.34
same,relative viability,NCI-H1993; first compound 0.08 µM,0.649
same,relative viability,NCI-H1993; first compound 0.253 µM,0.597
same,relative viability,NCI-H1993; first compound 0.8 µM,0.464
same,relative viability,NCI-H1993; first compound 2.53 µM,0.664
same,relative viability,NCI-H1993; first compound 8 µM,0.332
same,relative viability,NCI-H1975; first compound 0.08 µM,0.415
same,relative viability,NCI-H1975; first compound 0.253 µM,0.342
same,relative viability,NCI-H1975; first compound 0.8 µM,0.345
same,relative viability,NCI-H1975; first compound 2.53 µM,0.346
same,relative viability,NCI-H1975; first compound 8 µM,0.294
same,relative viability,LU99A; first compound 0.08 µM,0.539
same,relative viability,LU99A; first compound 0.253 µM,0.527
same,relative viability,LU99A; first compound 0.8 µM,0.531
same,relative viability,LU99A; first compound 2.53 µM,0.459
same,relative viability,LU99A; first compound 8 µM,0.459
same,relative viability,NCI-H596; first compound 0.08 µM,0.565
same,relative viability,NCI-H596; first compound 0.253 µM,0.572
same,relative viability,NCI-H596; first compound 0.8 µM,0.624
same,relative viability,NCI-H596; first compound 2.53 µM,0.553
same,relative viability,NCI-H596; first compound 8 µM,0.662
same,relative viability,COR-L23; first compound 0.08 µM,0.58
same,relative viability,COR-L23; first compound 0.253 µM,0.468
same,relative viability,COR-L23; first compound 0.8 µM,0.53
same,relative viability,COR-L23; first compound 2.53 µM,0.49
same,relative viability,COR-L23; first compound 8 µM,0.455
same,relative viability,NCI-H1755; first compound 0.08 µM,0.372
same,relative viability,NCI-H1755; first compound 0.253 µM,0.446
same,relative viability,NCI-H1755; first compound 0.8 µM,0.426
same,relative viability,NCI-H1755; first compound 2.53 µM,0.456
same,relative viability,NCI-H1755; first compound 8 µM,0.348
same,relative viability,COR-L 105; first compound 0.253 µM,0.427
same,relative viability,COR-L 105; first compound 0.8 µM,0.411
same,relative viability,COR-L 105; first compound 2.53 µM,0.293
same,relative viability,COR-L 105; first compound 8 µM,0.301
same,relative viability,LXF-289; first compound 0.08 µM,0.236
same,relative viability,LXF-289; first compound 0.253 µM,0.277
same,relative viability,LXF-289; first compound 0.8 µM,0.241
same,relative viability,LXF-289; first compound 2.53 µM,0.205
same,relative viability,LXF-289; first compound 8 µM,0.226
